Patent US20130102595A1 (Curis, Inc., priority 2011, published 2013)

Tests used:
PI3Kα (p110α/p85α) = target: T1, PI3Kα (p110α/p85α) (Homo sapiens, UniProt P42336); assay: PI3Kα ADP-Glo assay; assay type: biochemical; details: 20 μM PIP2, 10 μM ATP, 30 minutes
T1 construct: GST (N); made in house; host or cells: Baculovirus-infected Sf9 cells
Procedure, shortened: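 Luminescent ADP-Glo detection, after depletion of residual ATP, quantified ADP made by PI3Kα phosphorylating 20 μM PIP2 at 10 μM ATP. The kinase step ran 30 min at room temperature in HEPES pH 7.4 with MgCl2, DTT and orthovanadate, using baculovirus/Sf9-expressed full-length p110α/p85α complex.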

[1] = system: HDACs (HeLa cell nuclear extracts); assay: HDAC enzymatic activity, Biomol Color de Lys system; assay type: biochemical; details: 1 hour, 25° C.
Procedure, shortened: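 IC50 from sigmoidal fit of developer-terminated fluorescence (ex 350-380/em 440-460 nm). Reaction: 1 h at room temperature (25 °C), HeLa nuclear extract as HDAC source, artificial substrate, buffer of 50 mM Tris/Cl pH 8.0 with 137 mM NaCl, 2.7 mM KCl and 1 mM MgCl2.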

T1 sequence (P42336 whole entry): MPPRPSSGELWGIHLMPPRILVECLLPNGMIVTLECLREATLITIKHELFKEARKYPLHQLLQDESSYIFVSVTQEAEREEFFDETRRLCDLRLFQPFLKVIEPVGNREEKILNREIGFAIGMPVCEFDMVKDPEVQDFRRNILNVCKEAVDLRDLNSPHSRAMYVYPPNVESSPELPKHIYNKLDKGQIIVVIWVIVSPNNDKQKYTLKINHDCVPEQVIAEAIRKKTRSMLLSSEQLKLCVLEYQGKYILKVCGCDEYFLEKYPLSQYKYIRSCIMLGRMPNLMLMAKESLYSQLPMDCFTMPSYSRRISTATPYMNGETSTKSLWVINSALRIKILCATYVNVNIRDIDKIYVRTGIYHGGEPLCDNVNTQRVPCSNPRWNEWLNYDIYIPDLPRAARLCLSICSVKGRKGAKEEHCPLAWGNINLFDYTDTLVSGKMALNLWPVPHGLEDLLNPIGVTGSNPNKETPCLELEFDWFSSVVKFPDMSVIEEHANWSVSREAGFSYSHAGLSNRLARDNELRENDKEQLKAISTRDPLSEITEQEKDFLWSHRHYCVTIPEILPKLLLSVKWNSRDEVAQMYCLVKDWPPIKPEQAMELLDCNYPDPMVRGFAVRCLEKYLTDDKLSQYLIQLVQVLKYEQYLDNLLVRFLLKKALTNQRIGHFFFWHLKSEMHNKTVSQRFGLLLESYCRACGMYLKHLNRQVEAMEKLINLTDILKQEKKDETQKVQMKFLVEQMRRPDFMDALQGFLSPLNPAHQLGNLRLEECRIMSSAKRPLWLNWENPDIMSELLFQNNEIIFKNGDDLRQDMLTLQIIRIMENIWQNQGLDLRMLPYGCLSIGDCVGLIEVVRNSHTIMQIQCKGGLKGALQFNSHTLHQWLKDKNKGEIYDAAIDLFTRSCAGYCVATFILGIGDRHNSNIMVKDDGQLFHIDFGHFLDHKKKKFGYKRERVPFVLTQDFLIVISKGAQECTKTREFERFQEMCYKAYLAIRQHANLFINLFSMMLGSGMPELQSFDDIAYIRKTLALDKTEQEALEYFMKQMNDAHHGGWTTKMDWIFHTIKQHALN
T1 sequence (P27986 whole entry partner): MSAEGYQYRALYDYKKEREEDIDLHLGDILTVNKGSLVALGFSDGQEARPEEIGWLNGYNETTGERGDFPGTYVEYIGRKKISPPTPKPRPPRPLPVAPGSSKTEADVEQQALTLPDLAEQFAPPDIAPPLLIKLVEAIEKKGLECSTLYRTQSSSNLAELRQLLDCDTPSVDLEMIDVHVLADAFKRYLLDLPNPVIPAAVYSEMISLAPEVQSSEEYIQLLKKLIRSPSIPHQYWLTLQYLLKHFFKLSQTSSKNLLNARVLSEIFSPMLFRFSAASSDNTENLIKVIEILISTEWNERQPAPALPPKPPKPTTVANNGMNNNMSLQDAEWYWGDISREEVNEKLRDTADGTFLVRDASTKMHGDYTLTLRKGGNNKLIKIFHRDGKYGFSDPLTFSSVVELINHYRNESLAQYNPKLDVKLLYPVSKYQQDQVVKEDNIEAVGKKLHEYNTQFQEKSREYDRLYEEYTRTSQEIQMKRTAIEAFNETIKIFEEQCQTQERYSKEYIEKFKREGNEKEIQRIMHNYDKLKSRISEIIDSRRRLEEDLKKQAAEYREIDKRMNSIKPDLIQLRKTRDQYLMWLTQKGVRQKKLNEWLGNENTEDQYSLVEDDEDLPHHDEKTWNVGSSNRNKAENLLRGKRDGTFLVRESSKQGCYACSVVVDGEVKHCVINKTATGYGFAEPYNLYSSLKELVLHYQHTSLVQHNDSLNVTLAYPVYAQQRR

Row | SMILES | melting point | IC50 (PI3Kα (p110α/p85α)) | IC50 [1]
1 | CN(Cc1cc2nc(-c3cccc4[nH]ncc34)nc(Nc3ccccc3)c2s1)c1ncc(C(=O)NO)cn1 [Compound 164, 2-(((2-(1H-indazol-4-yl)-4-(phenylamino)thieno[3,2-d]pyrimidin-6-yl)methyl)(methyl)amino)-N-hydroxypyrimidine-5-carboxamide] | 232 to 235 °C | < 100 nM | < 100 nM
2 | COc1ccc(-c2nc(N3CCOCC3)c3sc(S(=O)(=O)Nc4ncc(C(=O)NO)cn4)cc3n2)cn1 [Compound 252, 2-[2-(6-Methoxy-pyridin-3-yl)-4-morpholin-4-yl-thieno[3,2-d]pyrimidine-6-sulfonylamino]-pyrimidine-5-carboxylic acid hydroxyamide] | 259 to 265 °C | < 100 nM | < 100 nM
3 | CN(CCCCCC(=O)NO)Cc1cc2nc(-c3cccc4[nH]ncc34)nc(N3CCOCC3)c2s1 [Compound 103, 6-(((2-(1H-indazol-4-yl)-4-morpholinothieno[3,2-d]pyrimidin-6-yl)methyl)(methyl)amino)-N-hydroxyhexanamide] | 115 to 118 °C | 100 to 1000 nM | < 100 nM
4 | COc1cccc(-c2nc(N3CCOCC3)c3sc(CN(C)c4ncc(C(=O)NO)cn4)cc3n2)c1 [Compound 130, N-hydroxy-2-(((2-(3-methoxyphenyl)-4-morpholinothieno[3,2-d]pyrimidin-6-yl)methyl)(methyl)amino)pyrimidine-5-carboxamide] | 179 to 181 °C | 100 to 1000 nM | < 100 nM
5 | CCCCN(Cc1cc2nc(-c3cccc4[nH]ncc34)nc(N3CCOCC3)c2s1)c1ncc(C(=O)NO)cn1 [Compound 85, 2-(((2-(1H-indazol-4-yl)-4-morpholinothieno[3,2-d]pyrimidin-6-yl)methyl)(butyl)amino)-N-hydroxypyrimidine-5-carboxamide] | 234 to 236 °C | 100 to 1000 nM | < 100 nM
6 | CN(Cc1cc2nc(-c3ccccc3CO)nc(N3CCOCC3)c2s1)c1ncc(C(=O)NO)cn1 [Compound 141, N-hydroxy-2-(((2-(2-(hydroxymethyl)phenyl)-4-morpholinothieno[3,2-d]pyrimidin-6-yl)methyl)(methyl)amino)pyrimidine-5-carboxamide] | 173 to 176 °C | 100 to 1000 nM | < 100 nM
7 | CS(=O)(=O)N1CCN(Cc2cc3nc(-c4cccc5[nH]ncc45)nc(N4CCN(CCCCC(=O)NO)CC4)c3s2)CC1 [Compound 30, 5-(4-(2-(1H-indazol-4-yl)-6-((4-(methylsulfonyl)piperazin-1-yl)methyl)thieno[3,2-d]pyrimidin-4-yl)piperazin-1-yl)-N-hydroxypentanamide] | 142 to 145 °C | > 10000 nM | 100 to 1000 nM
8 | CN(Cc1cc2nc(-c3ccc(N)c(C#N)c3)nc(N3CCOCC3)c2s1)c1ncc(C(=O)NO)cn1 [Compound 280, 2-(((2-(4-Amino-3-cyanophenyl)-4-morpholinothieno[3,2-d]pyrimidin-6-yl)methyl)(methyl)amino)-N-hydroxypyrimidine-5-carboxamide] | 237 to 240 °C | 100 to 1000 nM | < 100 nM
9 | CN(Cc1cc2nc(-c3ccccc3)nc(N3CCOCC3)c2s1)c1ncc(C(=O)NO)cn1 [Compound 129, N-hydroxy-2-(methyl((4-morpholino-2-phenylthieno[3,2-d]pyrimidin-6-yl)methyl)amino)pyrimidine-5-carboxamide] | 199 to 200 °C | > 10000 nM | < 100 nM
10 | CNc1ccc(-c2nc(N3CCOCC3)c3sc(C(C)N(C)c4ncc(C(=O)NO)cn4)cc3n2)cn1 (stereo not drawn) [Compound 237, N-Hydroxy-2-(methyl(1-(2-(6-(methylamino)pyridin-3-yl)-4-morpholinothieno[3,2-d]pyrimidin-6-yl)ethyl)amino)pyrimidine-5-carboxamide] | 270 to 275 °C | < 100 nM | < 100 nM
11 | CN(Cc1cc2nc(-c3ccc(N)c(O)c3)nc(N3CCOCC3)c2s1)c1ncc(C(=O)NO)cn1 [Compound 279, 2-(((2-(4-Amino-3-hydroxyphenyl)-4-morpholinothieno[3,2-d]pyrimidin-6-yl)methyl)(methyl)amino)-N-hydroxypyrimidine-5-carboxamide] | 214 to 218 °C | < 100 nM | < 100 nM
12 | CN(Cc1cc2nc(-c3cc(F)c(N)c(F)c3)nc(N3CCOCC3)c2s1)c1ncc(C(=O)NO)cn1 [Compound 282, 2-(((2-(4-Amino-3,5-difluorophenyl)-4-morpholinothieno[3,2-d]pyrimidin-6-yl)methyl)(methyl)amino)-N-hydroxypyrimidine-5-carboxamide] | 190 to 193 °C | 100 to 1000 nM | < 100 nM
13 | Nc1ncc(-c2nc(N3CCOCC3)c3sc(NCCCC(=O)NO)cc3n2)cn1 [Compound 225, 4-(2-(2-aminopyrimidin-5-yl)-4-morpholinothieno[3,2-d]pyrimidin-6-ylamino)-N-hydroxybutanamide] | 220 to 230 °C | < 100 nM | 1000 to 10000 nM
14 | O=C(CCCCCCN1CCN(Cc2cc3nc(-c4cccc5[nH]ncc45)nc(N4CCOCC4)c3s2)CC1)NO [Compound 13, 7-(4-((2-(1H-indazol-4-yl)-4-morpholinothieno[3,2-d]pyrimidin-6-yl)methyl)piperazin-1-yl)-N-hydroxyheptanamide] | 119 to 122 °C | 100 to 1000 nM | 100 to 1000 nM
15 | O=C(CCCCCN1CCN(Cc2cc3nc(-c4cccc5[nH]ncc45)nc(N4CCOCC4)c3s2)CC1)NO [Compound 12] | 123 to 124 °C | < 100 nM | 100 to 1000 nM
16 | CN(Cc1cc2nc(-c3ccc4[nH]c(=O)[nH]c4c3)nc(N3CCOCC3)c2s1)c1ncc(C(=O)NO)cn1 [Compound 186, N-hydroxy-2-(methyl((4-morpholino-2-(2-oxo-2,3-dihydro-1H-benzo[d]imidazol-5-yl)thieno[3,2-d]pyrimidin-6-yl)methyl)amino)pyrimidine-5-carboxamide] | 272 to 275 °C | > 10000 nM | < 100 nM
17 | Nc1ncc(-c2nc(N3CCOCC3)c3sc(NS(=O)(=O)c4cccc(/C=C/C(=O)NO)c4)cc3n2)cn1 [Compound 218, (E)-3-(3-(N-(2-(2-aminopyrimidin-5-yl)-4-morpholinothieno[3,2-d]pyrimidin-6-yl)sulfamoyl)phenyl)-N-hydroxyacrylamide] | > 300 °C | < 100 nM | < 100 nM
18 | CN(Cc1cc2nc(-c3ccc(C(N)=O)cc3)nc(N3CCOCC3)c2s1)c1ncc(C(=O)NO)cn1 [Compound 143, 2-(((2-(4-carbamoylphenyl)-4-morpholinothieno[3,2-d]pyrimidin-6-yl)methyl)(methyl)amino)-N-hydroxypyrimidine-5-carboxamide] | 200 to 202 °C | 100 to 1000 nM | < 100 nM
19 | CS(=O)(=O)N1CCN(Cc2cc3nc(-c4cccc5nn(CCCCC(=O)NO)cc45)nc(N4CCOCC4)c3s2)CC1 [Compound 7, N-hydroxy-5-(4-(6-((4-(methylsulfonyl)piperazin-1-yl)methyl)-4-morpholinothieno[3,2-d]pyrimidin-2-yl)-2H-indazol-2-yl)pentanamide] | 146 to 169 °C | 100 to 1000 nM | 100 to 1000 nM
20 | CN(Cc1cc2nc(-c3cccc4[nH]ncc34)nc(Nc3ccccn3)c2s1)c1ncc(C(=O)NO)cn1 [Compound 168, 2-(((2-(1H-indazol-4-yl)-4-(pyridin-2-ylamino)thieno[3,2-d]pyrimidin-6-yl)methyl)(methyl)amino)-N-hydroxypyrimidine-5-carboxamide] | 200 to 203 °C | 1000 to 10000 nM | < 100 nM
21 | CCOc1ccc(-c2nc(N3CCOCC3)c3sc(CN(C)c4ncc(C(=O)NO)cn4)cc3n2)cn1 [Compound 255, 2-(((2-(6-ethoxypyridin-3-yl)-4-morpholinothieno[3,2-d]pyrimidin-6-yl)methyl)(methyl)amino)-N-hydroxypyrimidine-5-carboxamide] | 162 to 165 °C | < 100 nM | < 100 nM
22 | CNC(=O)c1cccc(-c2nc(N3CCOCC3)c3sc(CN(C)c4ncc(C(=O)NO)cn4)cc3n2)c1 [Compound 144, N-hydroxy-2-(methyl((2-(3-(methylcarbamoyl)phenyl)-4-morpholinothieno[3,2-d]pyrimidin-6-yl)methyl)amino)pyrimidine-5-carboxamide] | 215 to 217 °C | 1000 to 10000 nM | < 100 nM
23 | Nc1ccc(-c2nc(N3CCOCC3)c3sc(C(=O)NCC4CCN(c5ncc(C(=O)NO)cn5)CC4)cc3n2)cc1 [Compound 307, 2-(4-Aminophenyl)-N-((1-(5-(hydroxycarbamoyl)pyrimidin-2-yl)piperidin-4-yl)methyl)-4-morpholinothieno[3,2-d]pyrimidine-6-carboxamide] | 232 to 238 °C | 100 to 1000 nM | < 100 nM
24 | CN(Cc1cc2nc(-c3ccc(N)c(Cl)c3)nc(N3CCOCC3)c2s1)c1ncc(C(=O)NO)cn1 [Compound 275, 2-(((2-(4-Amino-3-chlorophenyl)-4-morpholinothieno[3,2-d]pyrimidin-6-yl)methyl)(methyl)amino)-N-hydroxypyrimidine-5-carboxamide] | 241 to 246 °C | 100 to 1000 nM | < 100 nM
